From ChEMBL document CHEMBL5532680, “Identification of a Sonically Activated Degrader of Methionine Adenosyltransferase 2A by an in Silico Approach Assisted with the Hole-Electron Analysis” (J Med Chem, 2024)
Activity calls are given as the source filed them. The rule behind the calls is not given here.

Tests used:
[1] = target: S-adenosylmethionine synthase isoform type-2 (Homo sapiens, UniProt P31153); experiment: Inhibition of recombinant human MAT2A expressed in baculovirus infected Sf9 cells using L-methione as substrate preincubated for 15 mins followed by substrate addition and measured after 60 mins in presence of ATP by Kinase-Glo luminescent assay
Sequence of S-adenosylmethionine synthase isoform type-2 (P31153 whole entry, canonical isoform): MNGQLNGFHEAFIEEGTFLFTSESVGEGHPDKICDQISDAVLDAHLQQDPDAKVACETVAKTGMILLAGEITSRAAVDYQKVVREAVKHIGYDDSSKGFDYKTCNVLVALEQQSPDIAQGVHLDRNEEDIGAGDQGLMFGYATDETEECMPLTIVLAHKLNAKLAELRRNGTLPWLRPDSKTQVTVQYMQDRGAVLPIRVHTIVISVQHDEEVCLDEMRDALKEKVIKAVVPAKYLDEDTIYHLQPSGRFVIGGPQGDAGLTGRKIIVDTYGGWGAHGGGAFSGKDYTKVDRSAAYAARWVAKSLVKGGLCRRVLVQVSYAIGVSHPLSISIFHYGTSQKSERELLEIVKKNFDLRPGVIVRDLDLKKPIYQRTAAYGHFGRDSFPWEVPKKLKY

HCT-116 [2] = experiment: Antiproliferative activity against MTAP knocked out human HCT-116 cells incubated for 5 days by MTT method; type: functional, cell-based; conditions: HCT-116, 120 h
HCT-116 [3] = experiment: Antiproliferative activity against wild type human HCT-116 cells at less than 1 uM incubated for 5 days by MTT method; type: functional, cell-based; conditions: time 5.0 day
[4] = Drug localization in human HCT-116 cells cytoplasm assessed as bright red fluorescence at 1 uM by Hoechst 33342 staining based confocal assay; type: ADME, cell-based; conditions: hct-116, 1 µM
HCT-116 [5] = experiment: Induction of ROS generation in human HCT-116 cells assessed as fold increase at 0.1 uM preincubated for 6 hrs followed by sonication for 4 mins by DCFH-DA staining based flow cytometry analysis; type: functional; conditions: time 364 min, 6.067 h
HCT-116 [6] = experiment: Induction of ROS generation in human HCT-116 cells at 0.001 to 1 uM incubated for 6 hrs by DCFH-DA staining based flow cytometry analysis; type: functional, cell-based; conditions: dose 0.001-1 µM
HCT-116 [7] = experiment: Antiproliferative activity against MTAP knocked out human HCT-116 cells under 1 min sonication; type: functional, cell-based; conditions: HCT-116, 1 min
HCT-116 [8] = experiment: Antiproliferative activity against MTAP knocked out human HCT-116 cells incubated for 5 days by MTT method relative to control; type: functional; conditions: time 5 day
HCT-116 [9] = experiment: Antiproliferative activity against wild type human HCT-116 cells assessed as cell viability at 10 uM under 4 mins sonication; type: functional; conditions: HCT-116, 4 min, read-out: Activity
HCT-116 [10] = experiment: Induction of apoptosis in human HCT-116 cells assessed as increase in late apoptotic cells at 0.1 uM preincubated for 24 hrs followed by sonication for 4 mins by annexin V-FITC/PI staining based flow cytometry analysis relative to control; type: functional; conditions: time 1444 min, 24.07 h
HCT-116 [11] = experiment: Induction of apoptosis in MTAP knocked out human HCT-116 cells at 0.1 uM preincubated for 24 hrs followed by sonication for 4 mins by annexin V-FITC/PI staining based flow cytometry analysis relative to control; type: functional, cell-based; conditions: time 1444.0 min
[12] = Tmax in ICR mouse at 10 mg/kg, po measured upto 24 hrs by LC-MS/MS analysis; type: ADME, organism-based; conditions: in vivo
[13] = Half-life in ICR mouse at 10 mg/kg, po measured upto 24 hrs by LC-MS/MS analysis; type: ADME, organism-based; conditions: in vivo
[14] = Cmax in ICR mouse at 10 mg/kg, po measured upto 24 hrs by LC-MS/MS analysis; type: ADME, organism-based; conditions: in vivo
[15] = AUC in ICR mouse at 1 mg/kg, iv measured upto 24 hrs by LC-MS/MS analysis; type: ADME, organism-based; conditions: in vivo
[16] = Oral bioavailability in ICR mouse at 10 mg/kg measured upto 24 hrs by LC-MS/MS analysis; type: ADME, organism-based; conditions: in vivo
[17] = Mean residence time in BALB/c mouse at 10 mg/kg, po measured upto 24 hrs by LC-MS/MS analysis; type: ADME, organism-based; conditions: in vivo
[18] = Biodistribution in […] knocked out human HCT-116 cells xenografted in BALB/c mouse assessed as fluorescence intensity in heart at 10 mg/kg, po measured after 24 hrs; type: ADME, organism-based; conditions: in vivo
[19] = Biodistribution in MATP knocked out human HCT-116 cells xenografted in BALB/c mouse assessed as fluorescence intensity in spleen at 10 mg/kg, po measured after 24 hrs; type: ADME, organism-based; conditions: in vivo
HCT-116 [20] = experiment: Antitumor activity against […] knocked out human HCT-116 cells xenografted in BALB/c mouse assessed as tumor growth inhibition at 10 mg/kg, po administered once a day for 6 hrs and measured after 3 weeks; type: functional; conditions: HCT-116, 504 h, read-out: TGI
HCT-116 [21] = experiment: Antitumor activity against […] knocked out human HCT-116 cells xenografted in BALB/c mouse assessed as tumor growth inhibition at 10 mg/kg, po administered once a day followed by 4 mins sonication post 6 hrs of compound administration and measured for 3 weeks; type: functional; conditions: HCT-116, 504 h, read-out: TGI
[22] = Toxicity in BALB/c mouse xenografted with human HCT-116 cells assessed as body weight loss at 10 mg/kg, po administered once a day followed by 4 mins sonication post 6 hrs of compound administration and measured for 3 weeks; type: organism-based; conditions: in vivo, 504 h
[23] = Toxicity in BALB/c mouse xenografted with human HCT-116 cells assessed as lung damage at 10 mg/kg, po by H and E staining based assay; type: organism-based; conditions: in vivo
[24] = Toxicity in BALB/c mouse xenografted with human HCT-116 cells assessed as kidney damage at 10 mg/kg, po by H and E staining based assay; type: organism-based; conditions: in vivo
[25] = Toxicity in BALB/c mouse xenografted with human HCT-116 cells assessed as inflammatory cells infiltration at 50 mg/kg, po by H and E staining based assay; type: organism-based; conditions: in vivo
[26] = Toxicity in BALB/c mouse xenografted with human HCT-116 cells assessed as heart damage at 100 mg/kg, po by H and E staining based assay; type: organism-based; conditions: in vivo
[27] = Toxicity in BALB/c mouse xenografted with human HCT-116 cells assessed as spleen damage at 100 mg/kg, po by H and E staining based assay; type: organism-based; conditions: in vivo
[28] = Toxicity in BALB/c mouse xenografted with human HCT-116 cells assessed as lung damage at 100 mg/kg, po by H and E staining based assay; type: organism-based; conditions: in vivo
[29] = Apparent permeability in MDCKII-MDR1 cells; type: ADME, cell-based, Canis lupus familiaris; conditions: dog, MDCK-MDR1
MDR1 (P-gp) = experiment: Efflux ratio of apparent permeability in MDCKII-MDR1 cells; type: ADME, cell-based, Canis lupus familiaris; conditions: dog, MDCK-MDR1
Cytochrome P450 1A2 = target: T1, Cytochrome P450 1A2 (Homo sapiens, UniProt P05177); experiment: Inhibition of CYP1A2 (unknown origin); type: ADME
T1 sequence (P05177 whole entry): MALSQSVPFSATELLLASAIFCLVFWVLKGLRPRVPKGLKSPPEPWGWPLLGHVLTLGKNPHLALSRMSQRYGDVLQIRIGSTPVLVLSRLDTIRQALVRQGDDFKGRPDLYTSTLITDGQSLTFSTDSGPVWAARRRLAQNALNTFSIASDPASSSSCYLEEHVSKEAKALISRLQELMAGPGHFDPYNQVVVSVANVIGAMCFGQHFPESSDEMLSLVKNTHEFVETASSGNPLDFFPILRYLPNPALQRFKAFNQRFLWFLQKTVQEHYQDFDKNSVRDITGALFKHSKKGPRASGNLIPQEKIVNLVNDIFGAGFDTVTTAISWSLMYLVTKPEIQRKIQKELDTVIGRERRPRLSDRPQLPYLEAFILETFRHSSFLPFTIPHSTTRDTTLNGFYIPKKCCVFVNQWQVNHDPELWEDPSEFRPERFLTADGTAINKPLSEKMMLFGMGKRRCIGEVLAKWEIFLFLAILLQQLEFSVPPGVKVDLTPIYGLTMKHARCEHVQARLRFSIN

Cytochrome P450 2C19 = Cytochrome P450 2C19 (Homo sapiens, UniProt P33261); experiment: Inhibition of CYP2C19 (unknown origin); type: ADME
Sequence of Cytochrome P450 2C19 (P33261 whole entry): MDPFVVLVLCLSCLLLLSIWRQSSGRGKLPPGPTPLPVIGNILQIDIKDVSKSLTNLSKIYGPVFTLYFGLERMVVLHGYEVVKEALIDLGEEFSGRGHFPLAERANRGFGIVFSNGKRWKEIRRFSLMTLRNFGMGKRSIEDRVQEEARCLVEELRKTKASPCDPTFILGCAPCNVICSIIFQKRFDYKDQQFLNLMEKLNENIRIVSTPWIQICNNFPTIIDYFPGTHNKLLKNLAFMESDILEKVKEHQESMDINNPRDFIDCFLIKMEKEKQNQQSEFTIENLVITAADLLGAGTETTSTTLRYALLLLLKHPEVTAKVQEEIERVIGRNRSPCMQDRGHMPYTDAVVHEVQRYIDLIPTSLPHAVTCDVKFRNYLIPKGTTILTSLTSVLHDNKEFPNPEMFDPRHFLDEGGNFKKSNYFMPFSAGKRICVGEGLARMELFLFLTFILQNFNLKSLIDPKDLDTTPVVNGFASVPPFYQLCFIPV

Cytochrome P450 2D6 = Cytochrome P450 2D6 (Homo sapiens, UniProt P10635); experiment: Inhibition of CYP2D6 (unknown origin); type: ADME
Sequence of Cytochrome P450 2D6 (P10635 whole entry): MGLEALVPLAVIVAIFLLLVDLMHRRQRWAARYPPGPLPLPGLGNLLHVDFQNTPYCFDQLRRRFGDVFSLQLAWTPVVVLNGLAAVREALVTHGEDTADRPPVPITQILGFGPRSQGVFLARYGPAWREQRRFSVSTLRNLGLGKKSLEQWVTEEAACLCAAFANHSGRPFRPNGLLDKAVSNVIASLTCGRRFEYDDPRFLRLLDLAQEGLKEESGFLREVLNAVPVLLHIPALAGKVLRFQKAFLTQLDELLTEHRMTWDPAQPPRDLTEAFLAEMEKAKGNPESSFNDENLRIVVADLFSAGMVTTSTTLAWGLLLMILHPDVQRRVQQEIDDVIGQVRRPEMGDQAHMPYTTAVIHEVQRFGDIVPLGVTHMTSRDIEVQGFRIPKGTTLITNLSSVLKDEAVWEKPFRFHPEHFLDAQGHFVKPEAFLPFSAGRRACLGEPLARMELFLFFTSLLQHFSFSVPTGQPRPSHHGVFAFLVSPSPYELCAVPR

For `CCOc1ncc2cc(-c3ccc4c(c3)N3CCCC3CO4)c(=O)n(-c3ccc(OC(F)F)cc3)c2n1` (stereo not drawn), the IC50 [1] was 0.061 µM, the IC50 (HCT-116 [2]) was 0.35 µM and the Activity (HCT-116 [3]) was “inactive”. For the same compound, the Drug uptake [4] was “Active”, the “fold change (FC)” value (HCT-116 [5]) was 6 and the Activity (HCT-116 [6]) was “Active”. The IC50 (HCT-116 [7]) was 0.079 µM, the Activity (HCT-116 [8]) was 92% and the viability at 10 µM (HCT-116 [9]) was 77%. The Activity (HCT-116 [10]) was 9%, the Activity (HCT-116 [11]) was “Active” and the Tmax [12] was 0.5 h. For the same compound, the half-life [13] was 2.9 h, the Cmax [14] was 1380 ng/mL and the AUC [15] was 1267 ng·h/mL. The bioavailability [16] was 77%, the MRT [17] was 5.1 h and the Drug uptake [18] was “Not Active”. For the same compound, the Drug uptake [19] was “Not Active”, the inhibition in vivo at 10 mg/kg (HCT-116 [20]) was 15.6% and the inhibition in vivo at 10 mg/kg (HCT-116 [21]) was 103%. For the same compound, the Activity [22] was “Non-Toxic”, the Activity [23] was “Non-Toxic” and the Activity [24] was “Non-Toxic”. For the same compound, the Activity [25] was “Toxic”, the Activity [26] was “Non-Toxic” and the Activity [27] was “Non-Toxic”. For the same compound, the Activity [28] was “Non-Toxic”, the Papp [29] was 13.4 ×10⁻⁶ cm/s and the efflux ratio (MDR1 (P-gp)) was 0.9. It also gave an IC50 (Cytochrome P450 1A2) of over 50 µM, an IC50 (Cytochrome P450 2C19) of 16 µM and an IC50 (Cytochrome P450 2D6) of 39 µM.
